Results on 2 compounds are retold here after patent publication US20170326146A1, “METHODS OF TREATING HEPATITIS B INFECTIONS AND RELATED DOSAGE REGIMES” (ContraVir Pharmaceuticals, Inc., priority 2016, published 2017).

Where “and” joins values, the source holds several entries; their conditions need not be identical. Equal entries are not always repeated.

Data set [1] is described as follows: Pharmacokinetics of Compound I in human plasma: plasma concentrations of Compound I and tenofovir. The data set is classed as in vivo. The settings on record: single oral 5 mg dose of Compound I, individual subjects. Also noted: unit not given here. The protocol:
The pharmacokinetics of Compound I in human plasma was also evaluated. Plasma concentrations of Compound I and tenofovir (TFV) were measured at various time points up to 24 h after oral administration of a single 5 mg dose of Compound I. The results are summarized in Table 2.

The nature of data set [2]: Phase I clinical trial with healthy adults: safety, blood pressure, ECG. The data set is classed as in vivo, human. Particulars: healthy subjects. As for the experimental part: Eight healthy subjects were given Compound I orally at a daily dose of 5 mg for administration periods of between 9 and 14 days. […] Additionally, a placebo was administered to four healthy subjects for administration periods of between 9 and 14 days. The subjects were evaluated for changes in baseline blood pressure (FIGS. 1A and 1B: Changes in systolic and diastolic blood pressure, respectively, after administration of 5 mg of Compound I; FIGS. 2A and 2B: Changes in systolic and diastolic blood pressure, respectively, after administration of 10 mg of Compound I; FIGS. 3A and 3B: Changes in systolic and diastolic blood pressure, respectively, after administration of placebo). Furthermore, electrocardiograms (ECGs) were recorded to evaluate the change in baseline of heart rate, RR intervals, PR intervals, QRS duration and QTcF in each subject (FIGS. 4A and 4B: Changes in heart rate and RR interval, respectively, after administration of 5 mg of Compound I; FIGS. 5A and 5B: Changes in heart rate and RR interval, respectively, after administration of 10 mg of Compound I; FIGS. 6A and 6B: Changes in heart rate and RR interval, respectively, after administration of placebo; FIGS. 7A, 7B, and 7C: Changes in PR interval, QRS duration, and QTcF duration, respectively, after administration of 5 mg of Compound I; FIGS. 8A, 8B and 8C: Changes in PR interval, QRS duration, and QTcF duration, respectively, after administration of 10 mg of Compound I; FIGS. 9A, 9B and 9C: Changes in PR interval, QRS duration, and QTcF duration, respectively, after administration of placebo). In the Figures, as well as in Table 2 below, individual subjects are identified by 6-digit numbers. Subjects that were administered 5 mg of Compound I, 10 mg of Compound I, or a placebo, were monitored for between 15 and 18 days, between 9 and 11 days, or between 9 and 18 days after initiation of the study, respectively. […] The baselines are defined as the last variable assessment prior to initiation of the study.

[3] abbreviates: 5 mg or 10 mg daily, dose groups and placebo not told apart.

On to `CCCCCCCCCCCCCCCCOCCCOP(=O)(O)CO[C@H](C)Cn1cnc2c(N)ncnc21` [Compound I, 3-(hexadecyloxy)propyl hydrogen ((R)-1-(6-amino-9H-purin 9-yl)propan-2-yloxy)methylphosphonate], for which the “Pharmacokinetic plasma concentration of Compound I” value was 0.303 and 0.567 and <LLOQ < (0.150) (4×) and 1.090 and 0.893 in data set [1] (0.5 hours post-dose); 1.310 and 0.592 and 2.980 and 2.080 and <LLOQ < (0.150) (2×) and 1.570 and 0.743 in data set [1] (1 hour post-dose); 2.030 and 0.310 and 8.530 and 1.530 and 0.753 and 1.820 and 0.180 and 2.180 in data set [1] (2 hours post-dose); 0.412 and 1.550 and 1.350 and 5.250 and 1.340 and 1.500 and 0.206 and 1.070 in data set [1] (2.5 hours post-dose); 2.080 and 1.690 and 1.260 and 1.440 and 4.270 and 1.640 and 4.430 and 0.197 in data set [1] (3 hours post-dose); 1.180 and 2.460 and 0.712 and 0.508 and 1.500 and 0.520 and 1.540 and <LLOQ < (0.150) in data set [1] (4 hours post-dose). Besides, the “Pharmacokinetic plasma concentration of Compound I” value in data set [1] (6 hours post-dose) was 0.448 and 0.891 and 0.179 and <LLOQ < (0.150) (3×) and 0.372 and 0.389; in data set [1] (10 hours post-dose), “<LLOQ < (0.150)”; in data set [1] (12 hours post-dose) it was “<LLOQ < (0.150)”; in data set [1] (15 hours post-dose), “<LLOQ < (0.150)”; in data set [1] (18 hours post-dose), “<LLOQ < (0.150)”; in data set [1] (24 hours post-dose), “<LLOQ < (0.150)”. The “Pharmacokinetic plasma concentration of Compound I” value in data set [1] (Pre-dose) is “<LLOQ < (0.150)”. For the same compound, in data set [2] (setting [3]), the Adverse events reported result is given as “Few, minor adverse events (i.e., mild dizziness, headache or nausea)”. Further, the ECG abnormalities reported result in data set [2] (setting [3]) was “few ECG abnormalities (i.e., intraventricular conduction defect, frequent ventricular complexes and ectopic supraventricular rhythm)”. Besides, the “Premature discontinuation of the study” value in data set [2] (5 mg or 10 mg of Compound I daily or placebo) is recorded as “No subjects needed to discontinue the study prematurely”. The Safety and tolerability entry in data set [2] (oral daily dose of 5 mg for 9-14 days) is “safe and well-tolerated”; in data set [2] (oral daily dose of 10 mg for 9-14 days), “safe and well-tolerated”.
Consider `C[C@H](Cn1cnc2c(N)ncnc21)OCP(=O)(O)O` [TFV, tenofovir], for which the “Pharmacokinetic plasma concentration of TFV” value in data set [1] (0.5 hours post-dose) is “<LLOQ < (0.500)”; in data set [1] (1 hour post-dose), “<LLOQ < (0.500)”; in data set [1] (2 hours post-dose), 0.519 and <LLOQ < (0.500) (4×) and 0.528 and 0.733; in data set [1] (2.5 hours post-dose), 0.822 and 0.693 and 0.665 and 0.708 and 0.596 and <LLOQ < (0.500) and 0.959; in data set [1] (3 hours post-dose), 0.891 and <LLOQ < (0.500) (2×) and 0.764 and 0.900 and 0.781 and 0.648 and 0.918; in data set [1] (4 hours post-dose) it was 1.140 (2×) and <LLOQ < (0.500) and 0.900 and 0.948 and 0.750 and 0.594 and 0.903. The “Pharmacokinetic plasma concentration of TFV” value in data set [1] (6 hours post-dose) was 1.370 and 0.560 and 0.908 and 1.110 and 1.080 and 0.711 and 0.609 and 0.804; in data set [1] (10 hours post-dose), 1.300 and 0.526 and 0.695 and 0.800 and 0.652 and 0.516 and 0.558 and 0.659; in data set [1] (12 hours post-dose), 1.140 and <LLOQ < (0.500) (4×) and 0.535 and 0.664 and 0.574; in data set [1] (15 hours post-dose), 1.040 and <LLOQ < (0.500) (6×) and 0.581; in data set [1] (18 hours post-dose) it was 0.759 and <LLOQ < (0.500) (7×); in data set [1] (24 hours post-dose), 0.599 and <LLOQ < (0.500) (7×). Moreover, the “Pharmacokinetic plasma concentration of TFV” value in data set [1] (Pre-dose) is reported as “<LLOQ < (0.500)”.
